According to patent publication US20050119188A1, “Method of treating breast cancer” (priority 2003, published 2005):
pIC50: −log10 of the molar value. Read-outs that look alike come from different tables or passages of the source.

Key:
[1] = system: MCF-7 cells; assay: Growth studies in vitro: estrogen-stimulated MCF-7 cell proliferation (CellTiter-Glo luminescent viability assay); assay type: cell-based, human; conditions: for inhibition at 0.1 µM: read-out: inhibited cell proliferation; for pIC50: single agent, E2 (1 nM)-stimulated MCF-7 cells, Day 6, read-out: IC50 value, inhibition of MCF-7 cell growth
Experimental: Cell lines. MCF-7 cells were provided from Dr. A. Brodie (University of Maryland School of Medicine, Baltimore, Md.) and cultured in DMEM supplemented with 5% fetal bovine serum (FBS) and 1% penicillin/streptomycin (P/S). MCF-7arom cells were provided from Dr. S. Chen (Beckman Research Institute of the City of Hope, Duarte, Calif.) and cultured in DMEM supplemented with 5% FBS and 750 μg/ml geneticin.
Growth studies in vitro. Six days prior to plating in 96-well plates, MCF-7 cells growing in T-75 flasks (30-50% confluent) were washed extensively with phenyl red-free DPBS and transferred to estrogen-depleted medium. Estrogen-depleted medium was phenyl red-free DMEM/F-12 containing 10% heat-treated and dextran-coated charcoal-treated fetal bovine serum and 1% penicillin/streptomycin solution. Estrogen depleted media was refreshed 3 days prior to plating. On Day 0, cells were seeded (1,200 cells/well) into 96-well plates in estrogen-depleted medium and allowed to attach. On Day 1 the media was aspirated and replaced in 6-well replicates with estrogen-depleted medium supplemented with E2 (1 nM), and 4-OH Tamoxifen (Sigma Chemical Company, St Louis, Mo. in the range 10 nM-10 μM), or Fulvestrant (Tocris, Ellisville, Mo. in the range 10 nM-1.0 μM), FTI (in the range 10 nM-10 μM), and a combination of the antiestrogens and FTI. Media containing drugs was refreshed on Day 3. The effects of treatment on cell proliferation were determined on Day 6 using the CellTiter-Glo luminescent viability assay (Promega Corp., Madison, Wis.).

[2] = system: MCF-7arom breast tumor xenografts; assay: MCF-7arom breast tumor xenograft growth in vivo, FTI plus Anastrozole; design: species or system athymic nude mice; conditions: for induction of tumor regression / tumor regression: 28 days; for inhibited tumor growth compared to vehicle-treated animals: 28 days of treatment
Experimental: (§1) Growth Studies in vivo. Female ovariectomized athymic nude mice were obtained from Charles River Laboratories (Worcester, Mass.). Androstenedione (Δ4A) pellets (25 mg and 15 mg, 90-day slow release) and 17β-estradiol (E2) pellets (0.72 mg, 60-day slow release) were from Innovative Research of America (Saratoga, Fla.). Anastrozole and Letrozole were obtained from Sequoia Research Products, Oxford, United Kingdom) and Tamoxifen was from Sigma Chemical Company.
MCF-7arom breast tumor growth was performed as described previously (Lu et al., 1999, Breast Cancer Res. Treat., 57, 183-192; Long et al., 2002, Clin Cancer Res., 8, 2378-2388) with minor modifications. To determine the effect of combined FTI plus Anastrozole on the growth of MCF-7arom breast tumor xenografts, 2.5×10^6 MCF-7arom cells were inoculated into the right flank of the animals in 100 μl of Matrigel (BD Biosciences, Bedford, Mass.). Animals had been implanted with a 25 mg, 90-day Δ4A pellet the previous day. Fourteen days after cell inoculation, the animals were grouped (n=10) for treatment with: • 1) Vehicle • 2) Anastrozole (5 mg per kg [mpk], orally [p.o.], twice a day [b.i.d.]) • 3) FTI (20 mpk, p.o., b.i.d.) • 4) FTI (40 mpk, p.o., b.i.d.) • 5) FTI (60 mpk, p.o., b.i.d.) • 6) FTI (20 mpk, p.o., b.i.d.)+Anastrozole (5 mpk, p.o., b.i.d.) • 7) FTI (40 mpk, p.o., b.i.d.)+Anastrozole (5 mpk, p.o., b.i.d.) • 8) FTI (60 mpk, p.o., b.i.d.)+Anastrozole (5 mpk, p.o., b.i.d.)
Treatment was continued for 28 days and tumor volumes were measured twice a week with calipers. Tumor volumes and animal body weights were recorded using LABCAT (Innovative Programming Associates Inc., Princeton, N.J.). Tumor volumes were calculated by the formula (w×l×h)/2.

[3] = system: MCF-7arom breast tumor xenografts; assay: MCF-7arom breast tumor xenograft growth in vivo, FTI plus Tamoxifen; design: species or system athymic nude mice; conditions: Day 10 of treatment
Experimental: as §1
(§2) To determine the effect of combined FTI plus Tamoxifen on the growth of MCF-7arom breast tumor xenografts, 5×10^6 MCF-7arom cells were inoculated into the right flank of the animals in 100 μl of Matrigel. Animals had been implanted with a 15 mg, 90-day Δ4A pellet the previous day. Fourteen days after cell inoculation, the animals were grouped (n=10) for treatment with: • 1) Vehicle • 2) Tamoxifen (25 mpk, p.o., q.d.) • 3) FTI (20 mpk, p.o., b.i.d.) • 4) FTI (40 mpk, p.o., b.i.d.) • 5) FTI (20 mpk, p.o., b.i.d.)+Tamoxifen (25 mpk, p.o., q.d.) • 6) FTI (40 mpk, p.o., b.i.d.)+Tamoxifen (25 mpk, p.o., q.d.)
(§3) Treatment was continued for 28 days and tumor volumes were measured twice a week with calipers as described above.

[4] = system: MCF-7arom breast tumor xenografts; assay: MCF-7arom breast tumor xenograft growth in vivo, FTI plus Letrozole; design: species or system athymic nude mice; conditions: Day 10 of treatment
Experimental: as §1
To determine the effect of combined FTI plus Letrozole on the growth of MCF-7arom breast tumor xenografts, 5×10^6 MCF-7arom cells were inoculated into the right flank of the animals in 100 μl of Matrigel. Animals had been implanted with a 15 mg, 90-day Δ4A pellet the previous day. Fourteen days after cell inoculation, the animals were grouped (n=10) for treatment with: • 1) Vehicle • 2) Letrozole (2.5 mpk, p.o., once a day [q.d.]) • 3) FTI (20 mpk, p.o., b.i.d.) • 4) FTI (40 mpk, p.o., b.i.d.) • 5) FTI (20 mpk, p.o., b.i.d.)+Letrozole (2.5 mpk, p.o., q.d.) • 6) FTI (40 mpk, p.o., b.i.d.)+Letrozole (2.5 mpk, p.o., q.d.)
as §3

[5] = system: MCF-7 breast tumor xenografts; assay: Estrogen-stimulated MCF-7 breast tumor xenograft growth in vivo, FTI plus Tamoxifen; design: species or system athymic nude mice
Experimental: as §1
as §2, with “MCF-7 breast tumor growth was performed as described previously (Osborne et al., 1995, J. Natl Cancer Inst., 87, 746-750) with minor modifications. To” for “To”, “MCF-7” for “MCF-7arom”, “5.0×10^6 MCF-7” for “5×10^6 MCF-7arom”, “0.72” for “15”, “60-day” for “90-day Δ4A”, “grouped” for “grouped (n=10)”
as §3

C[C@]12CC[C@@H]3c4ccc(O)cc4C[C@@H](CCCCCCCCC[S+]([O-])CCCC(F)(F)C(F)(F)F)[C@H]3[C@@H]1CC[C@@H]2O (stereo partly shown) [Fulvestrant, reference compound]
inhibition at 0.1 µM ([1]; Homo sapiens, MCF7, single-agent Fulvestrant 0.1 μM (FIG. 2)): 53%

CC(C)(C#N)c1cc(Cn2cncn2)cc(C(C)(C)C#N)c1 [Anastrozole, reference compound]
induction of tumor regression ([2]; Anastrozole 5 mpk b.i.d.): did not induce tumor regression
inhibited tumor growth compared to vehicle-treated animals ([2]; Anastrozole 5 mpk p.o. b.i.d.): 62%

NC(=O)N1CCC(CC(=O)N2CCC([C@H]3c4ncc(Br)cc4CCc4cc(Cl)cc(Br)c43)CC2)CC1 [FTI]
inhibited tumor growth ([3]; FTI 40 mpk p.o. b.i.d.): 16%
inhibited tumor growth ([4]; FTI 40 mpk p.o. b.i.d.): 16%
pIC50 ([1]; Homo sapiens, MCF7, 144 h): 7.40
inhibition at 0.1 µM ([1]; Homo sapiens, MCF7, single-agent FTI 0.1 μM, 4-OH Tamoxifen experiment (FIG. 1)): 56%
inhibition at 0.1 µM ([1]; Homo sapiens, MCF7, single-agent FTI 0.1 μM, Fulvestrant experiment (FIG. 2)): 43%
induction of tumor regression ([2]; FTI 20 mpk b.i.d.): did not induce tumor regression
inhibited tumor growth compared to vehicle-treated animals ([2]; FTI 20 mpk p.o. b.i.d.): 56%
tumor regression ([2]; single-agent FTI 40 mpk b.i.d.): 16%
tumor regression ([2]; single-agent FTI 60 mpk b.i.d.): 40%
tumor regression, % of initial starting volume ([5]; single-agent FTI 40 mpk b.i.d., Day 14 of treatment): 57%

CC/C(=C(\c1ccccc1)c1ccc(OCCN(C)C)cc1)c1ccccc1 [Tamoxifen, reference compound]
inhibited tumor growth ([3]; Tamoxifen 25 mpk p.o. q.d.): 22%
inhibited tumor growth ([5]; Tamoxifen 25 mpk q.d., 14 days of treatment): 29%

CC/C(=C(\c1ccc(O)cc1)c1ccc(OCCN(C)C)cc1)c1ccccc1 [4-OH Tamoxifen, reference compound]
pIC50 [1]: 6.35
inhibited cell proliferation ([1]; single-agent 4-OH Tamoxifen 1.0 μM (FIG. 1)): 55%

N#Cc1ccc(C(c2ccc(C#N)cc2)n2cncn2)cc1 [Letrozole]
inhibited tumor growth ([4]; Letrozole 2.5 mpk p.o. q.d.): 127%
tumor regression ([4]; Letrozole 2.5 mpk p.o. q.d.): 25%
